The source of these data is patent KR20130112248A, “피라졸로피리미딘 유도체 화합물, 이를 포함하는 산화질소 생성 억제용 조성물 및 뇌신경 질환 예방 및 치료용 약학적 조성물” (한국과학기술연구원, priority 2012, dated 2013).

The first experiment deals with NO production in BV-2 cells [NO 생성; BV-2 세포]. The experiment can be described thus: Nitric oxide (NO) quantification (nitrite, Griess reaction) in LPS-activated BV-2 cells. It counts as cell-based. The note with it: 20 μM, LPS 0.2 ㎍/mL, 24 h co-treatment, nitrite by Griess at 540 nm.
As for “N-벤질-1-메틸-6-(메틸티오)피라졸로[3,4-d]피리미딘-4-아민 [화합물 12n]”, the “NO (% of LPS)” value is 51±1 % of LPS.
In the case of “N-(2-메톡시벤질)-6-(메틸설포닐)-1-페닐-1H-피라졸로[3,4-d]피리미딘-4-아민 [화합물 23d]”, the “NO (% of LPS)” value is recorded as 35±7.4 % of LPS.
For “2-(4-(4-플루오로벤질아미노)-6-(메틸티오)-1H-피라졸로[3,4-d]피리미딘-1-일)에틸카바메이트 [화합물 14f]”, the “NO (% of LPS)” value was 38.3±1.3 % of LPS.

The experiment is the same for the next values; noted with them: 20 μM, LPS 0.2 ㎍/mL, 24 h co-treatment, nitrite by Griess at 540 nm, 1440 min.
For `COc1cccc(CCn2ncc3c(NCc4ccccc4C)nc(S(C)(=O)=O)nc32)c1` [화합물 23y, N-(2-메틸벤질)-1-(3-메톡시펜에틸)-6-(메틸설포닐)-1H-피라졸로[3,4-d]피리미딘-4-아민], the “NO (% of LPS)” value is on record as 54±3.5 % of LPS.

The experiment is the same for the next values; noted with them: Mus musculus, BV-2, 24 h, 20 μM, LPS 0.2 ㎍/mL, 24 h co-treatment, nitrite by Griess at 540 nm.
On to `C=CCn1ncc2c(NCc3ccccc3)nc(SC)nc21` [화합물 13a, 1-알릴-4-벤질아미노-6-(메틸티오)피라졸로[3,4-d]피리미딘], for which the activity at 20 µM came out at 15 ± 25%.
For the compound `CSc1nc(SCc2ccccc2Cl)c2cnn(Cc3ccccc3)c2n1` [화합물 16s, 4-(2-클로로벤질티오)-1-벤질-6-(메틸티오)-1H-피라졸로[3,4-d]피리미딘], the activity at 20 µM is 66 ± 2.6%.
Take `CSc1nc(NC2CCCCC2)c2cnn(-c3ccccc3)c2n1` [화합물 15q, 1-페닐-4-사이클로헥실아미노-6-(메틸티오)피라졸로[3,4-d]피리미딘]: the activity at 20 µM amounted to 54 ± 1%.
With `CSc1nc(N[C@H](C)c2ccccc2)c2cnn(Cc3ccccc3)c2n1` [화합물 16e, (R)-1-벤질-4-(1-페닐에틸)아미노-6-(메틸티오)피라졸로[3,4-d]피리미딘], the activity at 20 µM worked out at 36 ± 4%.
With `CSc1nc(NCc2ccc(C)cc2)c2cnn(-c3ccc(F)cc3)c2n1` [화합물 20f, N-(4-메틸벤질)-1-(4-프루오로페닐)-6-(메틸티오)-1H-피라졸로[3,4-d]피리미딘-4-아민], the activity at 20 µM amounted to 62 ± 3.8%.
With `Cc1ccc(C(C)Nc2nc(S(C)(=O)=O)nc3c2cnn3-c2ccccc2)cc1` (centres unmarked) [화합물 23g, 6-(메틸설포닐)-1-페닐-N-(1-p-톨릴에틸)-1H-피라졸로[3,4-d]피리미딘-4-아민], the activity at 20 µM stood at 46 ± 3.9%.
Take `CSc1nc2c(cnn2-c2ccccc2)c(=S)[nH]1` [9b, 1-페닐-6-(메틸티오)피라졸로[3,4-d]피리미딘-4-티온]: the activity at 20 µM was 94 ± 7%.
On the same count and under the same terms, the figure for `CSc1nc(Cl)c2cnn(C)c2n1` [5a, 1-메틸-4-클롤로-6-(메틸티오)피라졸로[3,4-d]피리미딘] is 51 ± 2%; for `CSc1nc(NCc2ccccc2Cl)c2cnn(CCNC(=O)OC(C)(C)C)c2n1` [화합물 14l, 2-(4-(2-클로로벤질아미노)-6-(메틸티오)-1H-피라졸로[3,4-d]피리미딘-1-일)에틸카바메이트] it is 24.2 ± 1.7%.
Turning to `CSc1nc(N2CCN(C)CC2)c2cnn(-c3ccccc3)c2n1` [화합물 15u, 1-페닐-4-(4-메틸)피페라지노-6-(메틸티오)피라졸로[3,4-d]피리미딘], the activity at 20 µM worked out at 64%.
For the compound `CSc1nc(NCc2ccccc2)c2cnn(Cc3ccccc3)c2n1` [화합물 16a, 1-벤질-4-벤질아미노-6-(메틸티오)피라졸로[3,4-d]피리미딘], the activity at 20 µM was determined as 35 ± 0.5%.
With `CC(Nc1nc(NCCO)nc2c1cnn2Cc1ccccc1)c1ccccc1` (centres unmarked) [화합물 24a, 2-(4-(1-페닐에틸아미노)-1-벤질-1H-피라졸로[3,4-d]피리미딘-6-일아미노)에탄올], the activity at 20 µM was found to be 78 ± 1.4%.
Turning to `COc1ccccc1CNc1nc(SC)nc2c1cnn2C(C)(C)C` [화합물 17i, N-(2-메톡시벤질)-1-t-뷰틸-6-(methylthio)-1H-피라졸로[3,4-d]피리미딘-4-아민], the activity at 20 µM was determined as 45 ± 5.9%.
As for `COc1cccc(CCn2ncc3c(NCc4ccccc4OC)nc(S(C)(=O)=O)nc32)c1` [화합물 23x, N-(2-메톡시벤질)-1-(3-메톡시펜에틸)-6-(메틸설포닐)-1H-피라졸로[3,4-d]피리미딘-4-아민], the activity at 20 µM was determined as 35 ± 4.3%.
On the same count and under the same terms, the figure for `C=CCNc1nc(SC)nc2c1cnn2C` [화합물 12i, 1-메틸-4-알릴아미노-6-(메틸티오)피라졸로[3,4-d]피리미딘] is 101 ± 3%; for `CSc1nc(NCc2ccc(Cl)cc2)c2cnn(C(C)(C)C)c2n1` [화합물 17j, N-(4-클로로벤질)-1-t-뷰틸-6-(methylthio)-1H-피라졸로[3,4-d]피리미딘-4-아민] it is 19 ± 3.9%.
In the case of `CCCCNc1nc(SC)nc2c1cnn2C(C)(C)C` [화합물 17l, 1-t-뷰틸-N-뷰틸-6-(메틸티오)-1H-피라졸로[3,4-d]피리미딘-4-아민], the activity at 20 µM was 82 ± 9.5%.
Regarding `COc1ccc(CNc2nc(SC)nc3c2cnn3CCc2ccccc2OC)cc1` [화합물 19b, 1-(2-메톡시펜에틸)-N-(4-메톡시벤질)-6-(메틸티오)-1H-피라졸로[3,4-d]피리미딘-4-아민], the activity at 20 µM amounted to 27 ± 6.8%.
As to `CS(=O)(=O)c1nc(NCc2ccccc2Cl)c2cnn(-c3ccc(F)cc3)c2n1` [화합물 23j, N-(2-클로로벤질)-1-(4-플루오로페닐)-6-(메틸설포닐)-1H-피라졸로[3,4-d]피리미딘-4-아민], the activity at 20 µM was 28 ± 19.3%.
Still for that read-out and setting: the same measure for `CSc1nc(NCc2ccccc2)c2cnn(C)c2n1` [12a, 1-메틸-4-벤질아미노-6-(메틸티오)피라졸로[3,4-d]피리미딘]: 77 ± 2%; for `CSc1nc(NCc2ccccc2C)c2cnn(C)c2n1` [화합물 12l, 1-메틸-4-(2-메틸벤질)아미노-6-(메틸티오)피라졸로[3,4-d]피리미딘]: 69%; for `CSc1nc(NCc2ccccc2C)c2cn[nH]c2n1` [6r, 4-(2-메틸벤질)아미노-6-(메틸티오)피라졸로[3,4-d]피리미딘]: 64 ± 3%.
As to `COc1ccccc1CNc1nc(SC)nc2c1cnn2-c1ccc(C)cc1` [화합물 21b, N-(2-메톡시벤질)-6-(메틸티오)-1-p-톨릴-1H-피라졸로[3,4-d]피리미딘-4-아민], the activity at 20 µM was 44 ± 25.2%.
For the compound `CSc1nc(NCc2ccccc2)c2c(-c3ccccc3)nn(Cc3ccccc3)c2n1` [32a, 1-벤질-3-페닐-4-벤질아미노-6-(메틸티오)피라졸로[3,4-d]피리미딘], the activity at 20 µM is 53 ± 3%.
As to `COc1ccccc1CNc1nc(SC)nc2c1cnn2Cc1ccccc1` [화합물 16zc, N-(2-메톡시벤질)-1-벤질-6-(메틸티오)-1H-피라졸로[3,4-d]피리미딘-4-아민], the activity at 20 µM is 50 ± 1.1%.
Regarding `CSc1nc(NC(C)(C)CO)c2cnn(C(C)(C)C)c2n1` [화합물 17o, 2-(1-t-뷰틸-6-(메틸티오)-1H-피라졸로[3,4-d]피리미딘-4-일아미노)-2-메틸프로판-1-올], the activity at 20 µM was found to be 73.6 ± 2.4%.
On the same count and under the same terms, the figure for `COc1cccc(CNc2nc(SC)nc3c2cnn3-c2ccc(F)cc2)c1` [화합물 20d, N-(3-메톡시벤질)-1-(4-플루오로페닐)-6-(메틸티오)-1H-피라졸로[3,4-d]피리미딘-4-아민] is 43 ± 5.9%.
On the same count and under the same terms, the same measure for `CSc1nc(NCc2ccccc2Cl)c2cnn(C(C)(C)C)c2n1` [화합물 17n, N-(2-클로로벤질)-1-t-뷰틸-6-(메틸티오)-1H-피라졸로[3,4-d]피리미딘-4-아민]: 38 ± 2.9%; for `COc1ccc([C@H](C)Nc2nc(S(C)(=O)=O)nc3c2cnn3Cc2ccccc2)cc1` [화합물 23v, 1-벤질-N-((S)-1-(4-메톡시페닐)에틸)-6-(메틸설포닐)-1H-피라졸로[3,4-d]피리미딘-4-아민]: 59 ± 3%; for `CSc1nc(NCc2ccc(Cl)cc2)c2cn[nH]c2n1` [6p, 4-(4-클로로벤질)아미노-6-(메틸티오)피라졸로[3,4-d]피리미딘]: 50 ± 23%.
Turning to `CC(Nc1nc(S(C)(=O)=O)nc2c1cnn2Cc1ccccc1)c1ccccc1` (centres unmarked) [화합물 23p, 1-벤질-6-(메틸설포닐)-N-(1-페닐에틸)-1H-피라졸로[3,4-d]피리미딘-4-아민], the activity at 20 µM amounted to 40 ± 4.9%.
Same read-out and setting: the same measure for `CSc1nc(NCc2ccccc2C)c2cnn(-c3ccccc3)c2n1` [화합물 15o, 1-페닐-4-(2-메틸벤질)아미노-6-(메틸티오)피라졸로[3,4-d]피리미딘]: 57 ± 1%; for `CC(Nc1nc(N(C)C)nc2c1cnn2Cc1ccccc1)c1ccccc1` (centres unmarked) [화합물 24g, 1-벤질-N6,N6-디메틸-N4-(1-페닐에틸)-1H-피라졸로[3,4-d]피리미딘-4,6-디아민]: 63 ± 2.6%; for `CSc1nc(Cl)c(C(=O)c2ccccc2)c(Cl)n1` [compound 29, 1-[(4,6-다이클로로-2-(메틸티오)피리미딘)-5-일]-페닐케톤]: 35 ± 12%.
On to `CSc1nc(N(CCO)CCO)c2cnn(C)c2n1` [12c, 1-메틸-4-비스(1-하이드록시에틸)아미노-6-(메틸티오)피라졸로[3,4-d]피리미딘], for which the activity at 20 µM worked out at 115 ± 6%.
For `CSc1nc(N[C@H](C)C2CCCCC2)c2cnn(-c3ccccc3)c2n1` [화합물 15r, (R)-1-페닐-4-(1-사이클로헥실에틸)아미노-6-(메틸티오)피라졸로[3,4-d]피리미딘], the activity at 20 µM came to 41 ± 1%.
On to `CSc1nc(Cl)c2cnn(C(C)(C)C)c2n1` [5g, 1-t-뷰틸-4-클로로-6-(메틸티오)피라졸로[3,4-d]피리미딘], for which the activity at 20 µM was determined as 15 ± 18%.
As to `COc1ccc(CNc2nc(SC)nc3c2cnn3Cc2ccccc2)cc1` [화합물 16g, 1-벤질-4-(4-메톡시벤질)아미노-6-(메틸티오)피라졸로[3,4-d]피리미딘], the activity at 20 µM worked out at 37 ± 6%.
Take `CS(=O)(=O)c1nc(NC(c2ccccc2)c2ccc(Cl)cc2)c2cnn(Cc3ccccc3)c2n1` (centres unmarked) [화합물 23s, 1-벤질-N-((4-클로로페닐)(페닐)메틸)-6-(메틸설포닐)-N-(1-페닐에틸)-1H-피라졸로[3,4-d]피리미딘-4-아민]: the activity at 20 µM is 54 ± 2.3%.
With `COc1cccc(CNc2nc(SC)nc3c2cnn3-c2ccc(C)cc2)c1` [화합물 21d, N-(3-메톡시벤질)-6-(메틸티오)-1-p-톨릴-1H-피라졸로[3,4-d]피리미딘-4-아민], the activity at 20 µM amounted to 42 ± 5.2%.
Still for that read-out and setting: the figure for `COc1ccc(CNc2nc(SC)nc3c2cnn3-c2ccc(F)cc2)cc1` [화합물 20e, N-(4-메톡시벤질)-1-(4-플루오로페닐)-6-(메틸티오)-1H-피라졸로[3,4-d]피리미딘-4-아민] is 235%; for `CCCCNc1nc(SC)nc2c1cnn2Cc1ccccc1` [화합물 16zg, 1-벤질-N-뷰틸-6-(메틸티오)-1H-피라졸로[3,4-d]피리미딘-4-아민] it is 55 ± 1.9%.
For the compound `COc1ccccc1CNc1nc(SC)nc2[nH]ncc12` [6v, 4-(2-메톡시벤질)아미노-6-(메틸티오)피라졸로[3,4-d]피리미딘], the activity at 20 µM turned out to be 36 ± 7%.
Same read-out and setting: the figure for `CSc1nc(NCc2ccc(F)cc2)c2cnn(CCO)c2n1` [화합물 27b, 1-(1-하이드록시에틸)-4-(4-플루오로벤질)벤질아미노-6-(메틸티오)피라졸로[3,4-d]피리미딘] is 73 ± 10%; for `CSc1nc(NCCc2ccccc2)c2cnn(C)c2n1` [12g, 1-메틸-4-(2-페닐에틸)아미노-6-(메틸티오)피라졸로[3,4-d]피리미딘] it is 92 ± 1%.
Consider `CSc1nc(NCc2ccc(F)cc2)c2cnn(-c3ccccc3)c2n1` [화합물 15e, 1-페닐-4-(4-플루오로벤질)아미노-6-(메틸티오)피라졸로[3,4-d]피리미딘], for which the activity at 20 µM stood at 46 ± 10%.

The same experiment, now with this note: Mus musculus, BV-2, 24 h, 30 μM, LPS 0.2 ㎍/mL, 24 h co-treatment, nitrite by Griess at 540 nm.
Consider `CSc1nc(Cl)c2cn[nH]c2n1` [compound 4, 4-클로로-6-(메틸티오)피라졸로[3,4-d]피리미딘], for which the activity at 30 µM is 19 ± 4.1%.
Turning to `CSc1nc(NCCO)c2c(I)n[nH]c2n1` [11b, 3-아이오도-4-(1-하이드록시에틸)아미노-6-(메틸티오)피라졸로[3,4-d]피리미딘], the activity at 30 µM amounted to 82 ± 7%.
Regarding `COc1nc(SC)nc2[nH]nc(I)c12` [11d, 3-아이오도-4-메톡시-6-(메틸티오)피라졸로[3,4-d]피리미딘], the activity at 30 µM amounted to 91 ± 3%.
